Source: patent US20180049457A1, “ENZYMATIC SYNTHESIS OF SOLUBLE GLUCAN FIBER” (E I DU PONT DE NEMOURS AND COMPANY, priority 2014, published 2018)

What was measured:
[1] = system: human faecal microbiota; assay: Colonic fermentation modeling (semi-continuous colon simulator) and measurement of fatty acids; assay type: cell-based; conditions: test component 1% in ileal fluid, 48 h
Text: Colonic fermentation was modeled using a semi-continuous colon simulator as described by Makivuokko et al. (Nutri. Cancer (2005) 52(1):94-104); in short; a colon simulator consists of four glass vessels which contain a simulated ileal fluid as described by Macfarlane et al. (Microb. Ecol. (1998) 35(2):180-187). The simulator is inoculated with a fresh human faecal microbiota and fed every third hour with new ileal liquid and part of the contents is transferred from one vessel to the next. The ileal fluid contains one of the described test components at a concentration of 1%. The simulation lasts for 48 h after which the content of the four vessels is harvested for further analysis. The further analysis involves the determination of microbial metabolites such as short chain fatty acids (SCFA); also referred to as volatile fatty acids (VFA) and branched chain fatty acids (BCFA). Analysis was performed as described by Holben et al. (Microb. Ecol. (2002) 44:175-185); in short; simulator content was centrifuged and the supernatant was used for SCFA and BCFA analysis. Pivalic acid (internal standard) and water were mixed with the supernatant and centrifuged. After centrifugation, oxalic acid solution was added to the supernatant and then the mixture was incubated at 4° C., and then centrifuged again. The resulting supernatant was analyzed by gas chromatography using a flame ionization detector and helium as the carrier gas. Comparative data generated from samples of LITESSE® ULTRA™ (polydextrose, Danisco), ORAFTI® P95 (oligofructose; fructo-oligosaccharide, “FOS”, Beneo), lactitol (Lactitol MC (4-O-β-D-galactopyranosyl-D-glucitol monohydrate, Danisco), and a negative control is also provided. The concentration of acetic, propionic, butyric, isobutyric, valeric, isovaleric, 2-methylbutyric, and lactic acid was determined (Table 64).

[2] = system: intestinal microbiota; assay: In vitro gas production by intestinal microbiota (pre-conditioned faecal slurry); assay type: cell-based
Experimental: To measure the formation of gas by the intestinal microbiota, a pre-conditioned faecal slurry was incubated with test prebiotic (oligosaccharide or polysaccharide soluble fibers) and the volume of gas formed was measured. Fresh faecal material was pre-conditioned by dilution with 3 parts (w/v) of anaerobic simulator medium, stirring for 1 h under anaerobic conditions and filtering through 0.3-mm metal mesh after which it was incubated anaerobically for 24 h at 37° C.
The simulator medium used was composed as described by G. T. Macfarlane et al. (Microb. Ecol. 35(2):180-7 (1998)) containing the following constituents (g/L) in distilled water: starch (BDH Ltd.), 5.0; peptone, 0.05; tryptone, 5.0; yeast extract, 5.0; NaCl, 4.5; KCl, 4.5; mucin (porcine gastric type III), 4.0; casein (BDH Ltd.), 3.0; pectin (citrus), 2.0; xylan (oatspelt), 2.0; arabinogalactan (larch wood), 2.0; NaHCO3, 1.5; MgSO4, 1.25; guar gum, 1.0; inulin, 1.0; cysteine, 0.8; KH2PO4, 0.5; K2HPO4, 0.5; bile salts No. 3, 0.4; CaCl2×6 H2O, 0.15; FeSO4×7 H2O, 0.005; hemin, 0.05; and Tween 80, 1.0; cysteine hydrochloride, 6.3; Na2S×9 H2O, and 0.1% resazurin as an indication of sustained anaerobic conditions. The simulation medium was filtered through 0.3 mm metal mesh and divided into sealed serum bottles.
Test prebiotics were added from 10% (w/w) stock solutions to a final concentration of 1%. The incubation was performed at 37° C. while maintaining anaerobic conditions. Gas production due to microbial activity was measured manually after 24 h incubation using a scaled, airtight glass syringe, thereby also releasing the overpressure from the simulation unit.
Solutions of chromatographically-purified soluble oligosaccharide/polysaccharide fibers were dried to a constant weight by lyophilization. The individual soluble oligosaccharide/polysaccharide soluble fiber samples were subsequently evaluated as carbon source for in vitro gas production using the method described in the General Methods. PROMITOR® 85 (soluble corn fiber, Tate & Lyle), NUTRIOSE® FM06 (soluble corn fiber or dextrin, Roquette), FIBERSOL-2® 600F (digestion-resistant maltodextrin, Archer Daniels Midland Company & Matsutani Chemical), ORAFTI® GR (inulin from Beneo, Mannheim, Germany), LITESSE® Ultra™ (polydextrose, Danisco), GOS (galactooligosaccharide, Clasado Inc., Reading, UK), ORAFTI® P95 (oligofructose (fructo-oligosaccharide, FOS, Beneo), LACTITOL MC (4-O-β-D-Galactopyranosyl-D-glucitol monohydrate, Danisco) and glucose were included as control carbon sources. Table 61 lists the In vitro gas production by intestinal microbiota at 3 h and 24 h. Table 62 lists the in vitro gas production by intestinal microbiota from controls and the sequences identified from the GTF0459 homolog sequence search. Table 63 lists the in vitro gas production by intestinal microbiota from controls and truncations of homolog sequences identified from the GTF0459 homolog sequence search.

[3] = GTF activity of strains (PAHBAH assay); assay type: biochemical; conditions: enzyme expressed in B. subtilis host
Method in brief: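 Glucosyltransferase (GTF) activity of the bacterial strains was measured with the PAHBAH assay. The enzymes tested were truncated GTF variants produced in a Bacillus subtilis expression host. Measurements were split across three separate experiments, and each activity value is reported together with the experiment it came from because results varied slightly between experiments.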

O.OC[C@@H](O)[C@@H](O[C@@H]1O[C@H](CO)[C@H](O)[C@H](O)[C@H]1O)[C@H](O)[C@@H](O)CO [LACTITOL MC, 4-O-β-D-Galactopyranosyl-D-glucitol monohydrate]
Acetic [1]: 318 mM | Branched Chain Fatty Acids (BCFA) [1]: 7.5 mM | Butyric [1]: 94 mM | Lactic [1]: 52 mM | Propionic [1]: 42 mM | Short Chain Fatty Acids (SCFA) [1]: 506 mM

O.OC[C@@H](O)[C@@H](O[C@@H]1O[C@H](CO)[C@H](O)[C@H](O)[C@H]1O)[C@H](O)[C@@H](O)CO [LACTITOL ® MC]
mL gas formation in 3 h ([2]; Table 61): 2.0 mL | mL gas formation in 3 h ([2]; Table 62): 2.0 mL | mL gas formation in 3 h ([2]; Table 63): 3.0 mL | mL gas formation in 24 h ([2]; 24 h, Table 61): 4.8 mL | mL gas formation in 24.5 h ([2]; Table 62): 1.5 mL | mL gas formation in 24.5 h ([2]; Table 63): 2.0 mL

B1: GTF0974T4: T4 C-terminal truncation of GTF0974 glucosyltransferase, SEQ ID NO: 128, strain SG1316 (protein)
chain: INGKQYYVNSDGSVRKNFVFEQDGKSYYFDAETGALATKSQDEFSTEPIKATVDFSSGNQLYKNDDKSLDQLDTFITADAWYRPKSILKDGKTWTASTEADKRPLLMVWWPDKSTQVNYLNYMQNQGLGAGSFSTNSSQESLDQAAKAVQTKIEERIAREGNTNWLRTSIDQFIKTQPGWNSSTENSSYDHLQGGQLLFNNSKGDTGNRTSHANSDYRLLNRTPTNQTGTRKYFKDNSIGGLEFLLANDIDNSNPAVQAEQLNWLHFMMNIGSIMANDPTANFDGLRVDALDNVDADLLQIASDYFKAAYGVDKSEANAIKHLSYLEAWSANDPYYNKDTKGAQLPIDNALRNALTNLLMRDKNTRMQLGDMTAFINSSLNPRGANDKNGERMANYIFTRAHDTEAQTIIQRIIRDRINPNLFGYNFTRDEIKKAFEIYNEDIDKAHKTYASYNLPSVYALMLTNKDSVTRVYYGDLYREDGHYMAKKTPYFDAIDTLLRARIKYVAGGQDMEVKKVGNDGLLTSVRYGKGANNRTDLGTSETRTQGMGVIMTNNYDFRLGSNETVTMNMGRAHRNQLYRPLLLTTKDGIATYLNDSDVPKKLLKRTDWNGNLTFNANDVFGVENVQVSGYLGVWVPYGAKANQDARTQPSNRANSDGQVYKSSAALDSQVMYEAFSNFQAFADDQPELYMNRVLAKNTDLLKAWGITSVGLPPQYVSSKDGTFLDSTIDNGYAFDDRYDMALSQNNKYGSLEDLLNVLRALHKDGIQAIADWVPDQIYNLPGKEVVNATRVNGYGNHQVGYQIIDQAYVANTRTDGTDYQGKYGGAFLDELKAKYPSIFNRVQISNGKQLPTNEKITKWSAKYFNGTNILGRGINYVLRDDKTNQYFNTSANSQLLPTPLRDTGAITSTQVFQRRGQDVYFLRDNQAVKNEFVQDGNGNWYYFGGDGKMTKGAQNINNKDYYFFDNGIQLRNALRRASNGYTYYYGLDGAMVKNAFVDFDDKHK
modifications: T4 C-terminal truncation of GTF0974
GTF activity of strains: Acitivity ([3]; Experiment Number 2): 47.2 U/mL | GTF activity of strains: Acitivity ([3]; Experiment Number 3): 33.9 U/mL
